Results as given in patent publication US9867794B2, “Regulation of osteopontin” (Pathologica LLC, priority 2007, dated 2018).
Values joined by “and” are separate entries in the source; they are usually repeats but may differ in a detail not shown here. Equal values may be shown once.

Assays:
LILRA1 [1] = assay: Quantitative RT-PCR, unsorted mononuclear cells, LILRA1; format: cell-based, human
Method: (§1) To evaluate the effect of MGBG on gene expression, blood samples were obtained from patients (N=18, 10 HIV-infected and 8 Healthy Controls). Mononuclear cells were isolated via Percoll gradient centrifugation. The cells were split into two tubes, one treated with 10 μM of MGBG and the other non-treated. The cells were then cultured overnight in RPMI media plus 10% fetal bovine serum at 37 C under non-adherent conditions, collected, lysed using Trizol solution, and total RNA prepared according to manufacturer's instructions (Invitrogen, Carlsbad, Calif.).
(§2) Approximately 200 ng of total RNA prepared from each sample was converted to cDNA using the First Strand cDNA Synthesis Kit for RT-PCR [AMV] kit (Roche Applied Diagnostics, Indianapolis, Ind.) according to manufacturer's instructions. Around 5 ng of cDNA sample was then used for PCR performed on a LightCycler (Roche Applied Diagnostics, Indianapolis, Ind.) using the LightCycler FastStart DNA Master SYBR Green I kit. PCR conditions are as follows: 1 cycle of denaturation at 95° C. for 10 minutes, followed by 45 cycles of 95° C. for 10 seconds, 68° C. for 10 seconds, and 72° C. for 16 seconds.
(§3) The sequences of gene-specific primers evaluated are listed below. All samples were also amplified with the human β-actin LightCycler-Primer set (Roche Diagnostics).

osteopontin [2] = assay: QRT-PCR in CD14/CD16-separated cell fractions, osteopontin RNA; format: cell-based, human; conditions: for osteopontin RNA, median change relative to no MGBG: 10 μM MGBG
Method: The changes induced by MGBG in different blood cell types were determined for osteopontin and adenosine deaminase and 7 other genes. For this experiment, blood samples were obtained from 6 healthy controls (3 men/3 women from 20 to 55 years of age) and mononuclear cells were isolated via Percoll gradient centrifugation. The cells were then incubated for 3 hours in RPMI media plus 10% fetal bovine serum at 37 C. At that point MGBG was added to 10 μM to half of each sample and then the cells were incubated at 37 C for 20 more hours. The cells were then bound to magnetic beads coated with antibodies to human CD16. Bound cells (CD16 expressing) were separated from unbound cells using an AutoMACs according to manufacturer's instructions (Miltenyi, Auburn Calif.). Then CD16+ cells are released from the magnetic beads and both the CD16+ and CD16− cells are combined with magnetic beads coated with antibodies to human CD14. Antibody bound and unbound cells were then separated using the AutoMACs machine. […] Cells that neither express CD16 nor CD14 (the −/− Cells). This is mostly T lymphocytes; 2. Cells that only express CD16. This includes contaminating granulocytes not removed by Percoll centrifugation and CD16+ monocytes with very low CD14 expression; 3. Cells that express both CD16 and CD14. This includes monocytes that are expressing CD16+ and macrophages (which express high levels of both); and 4. Cells that only express CD14. This would include most normal human monocytes. After separation, cells of each fraction are washed with PBS and the number of viable cells determined by trypan blue exclusion. RNA is then prepared from each cell group using TRIZOL, according to manufacturer's instructions.

Osteopontin [3] = assay: Macrophage Osteopontin production in migration assays; format: cell-based; conditions: 10 μM MGBG; from >200 ng/mL without drug
Method: (§4) Additionally, cells being targeted by MGBG were investigated. […] To elucidate the effects of MGBG and OPN on cell motility, migration assays were conducted. MGBG at 10 μM inhibited macrophage Osteopontin production from >200 ng/mL to nondetectable levels while simultaneously inhibiting HeLa cell invasion into a Matrigel matrix.

IL24 [4] = assay: Microarray analysis of mononuclear cells, IL24; format: cell-based, human; conditions: for IL24 signal +, Average: 10 μM MGBG
Method: (§5) Blood samples were obtained from HIV infected patients (N=9) with positive viral load and reduced CD4 counts, and non-HIV infected, healthy controls (N=6). Blood was collected into heparin anticoagulant tubes and mononuclear cells were isolated by Percoll gradient centrifugation. The cells from each sample were split into 2: one-half receives MGBG at concentration of 10 μM and the other half received no treatment. All samples were then cultured overnight in RPMI media with 10% fetal bovine serum at 37° C. under non-adherent conditions. The next day cells were collected by centrifugation, washed one time with PBS, and lysed by resuspension in TRIZOL, and total RNA was prepared according to manufacturer's instructions (Invitrogen, Carlsbad, Calif.). […] The RNA was then amplified for microarray analysis using a 2 cycle amplification protocol according to the manufacturer's instructions (Affymetrix, Santa Clara, Calif.). The amplified RNAs were then hybridized to Human Genome U133 plus 2.0 microarrays (Affymetrix) and expression data was obtained using an Affymetrix scanner and GCOS protocols. Microarray data was analyzed with GeneSpring Microarray Suite. Results were normalized using a set of 100 probe sets determined by the manufacturer to have relatively invariant expression across most cell types.

NBS1 = assay: Quantitative RT-PCR, unsorted mononuclear cells, NBS1; format: cell-based, human
Method: as §1, §2, §3

MX2 = assay: Quantitative RT-PCR, unsorted mononuclear cells, MX2; format: cell-based, human
Method: as §1, §2, §3

IL24 [5] = assay: Quantitative RT-PCR, unsorted mononuclear cells, IL24; format: cell-based, human
Method: as §1, §2, §3

OPN RNA = assay: OPN production inhibition assay in un-stimulated PBMC cultures, OPN RNA; format: cell-based; conditions: 10 μM, harvested 1, 3 and 6 days
Method: 10 μM of each drug was added to un-stimulated PBMC cultures at time=0 and cells were harvested 1,3, and 6 days later for quantitative OPN RNA and protein production analysis.

LILRA1 [6] = assay: Microarray analysis of mononuclear cells, LILRA1; format: cell-based, human; conditions: for LILRA1 signal +, Average: 10 μM MGBG
Method: as §5

SPP1 = assay: Quantitative RT-PCR, unsorted mononuclear cells, SPP1; format: cell-based, human
Method: as §1, §2, §3

[7] = test system: CD14+ macrophages; CD16+/CD14− cells; assay: Phenotypic analysis of cells targeted by MGBG; format: cell-based; conditions: increasing concentrations of MGBG
Method: as §4

[8] = 10 μM MGBG overnight, individual samples
[9] = average of control samples (C6-, M6-177)
[10] = 10 μM, individual donor samples
[11] = presence of 10 μM MGBG overnight, individual donor samples
[12] = 10 μM MGBG overnight, untreated vs treated, negative = fold reduction, individual samples
[13] = 10 μM MGBG, all unsorted samples

## CC(/C=N/NC(=N)N)=N\NC(=N)N [MGBG, 1,1′ [methylethanediylidene]dinitrilodiguanidine]
LILRA1 [1]; [8]
  Fold change LILRA1 by QRT-PCR: −1.91 fold and 1.01 fold and −3.10 fold and 1.31 fold and −2.87 fold and 1.52 fold and −3.97 fold and −2.27 fold and 1.11 fold and 1.34 fold and −4.79 fold and −1.31 fold and 1.28 fold and 13.45 fold
LILRA1 [1]; 10 μM MGBG, all samples
  LILRA1 AVERAGE: 1.71 fold
  LILRA1 MAX: 13.45 fold
  LILRA1 MIN: −4.79 fold
Osteopontin [2]; CD14+ monocyte fraction
  osteopontin RNA, median change relative to no MGBG: 0.21
Osteopontin [2]; CD14+ monocyte fraction, 10 μM MGBG 20 h, healthy controls, p=0.03
  osteopontin RNA median reduction: 4.8 fold
Osteopontin [2]; CD14/16++ cells, not significant
  osteopontin RNA, median change relative to no MGBG: 0.61
Osteopontin [2]; CD16+ cells, not significant
  osteopontin RNA, median change relative to no MGBG: 1.12
Osteopontin [2]; double negative cells, not significant
  osteopontin RNA, median change relative to no MGBG: 0.70
Osteopontin [3]
  macrophage Osteopontin production: nondetectable
IL24 [4]; average of HIV samples
  IL24 signal +, Average: 560
IL24 [4]; [9]
  IL24 signal +, Average: 598
IL24 [4]; [10]
  IL24 fold change, MGBG/ON ratio (up-regulation): 5.4 fold and 1.2 fold (2×) and 3.3 fold and 0.3 fold and 0.5 fold and 0.2 fold and 5.5 fold and 2.6 fold and 4.5 fold (2×) and 0.03 fold and 192.1 fold and 0.6 fold and 26.0 fold
IL24 [4]; HIV infected samples but not controls
  IL24 regulation after MGBG exposure: upregulated
IL24 [4]; [11]
  IL24 signal +: 111 and 85 and 1940 and 178 and 375 and 578 and 206 and 1549 and 925 and 163 and 166 and 350 and 1364 and 59 and 577
NBS1; [8]
  Fold change NBS1 by QRT-PCR: 1.68 fold and 1.25 fold and 1.35 fold and −1.56 fold and 2.07 fold and 3.51 fold (2×) and −1.09 fold and 1.04 fold and 4.08 fold and 2.31 fold and 1.14 fold and 1.27 fold and −4.35 fold and −8.51 fold and −2.51 fold and −1.89 fold and 3.63 fold
NBS1; 10 μM MGBG, all samples
  NBS1 AVERAGE: 1.65 fold
  NBS1 MAX: 4.08 fold
  NBS1 MIN: −8.51 fold
MX2; [8]
  Fold change MX2 by QRT-PCR: 2.03 fold and −1.09 fold and 1.16 fold (2×) and −1.01 fold and 4.35 fold and 1.56 fold and −2.81 fold and 3.07 fold and −1.33 fold and −1.77 fold and −3.27 fold and 1.36 fold and 1.13 fold and −2.11 fold and −2.85 fold and 1.23 fold and 6.06 fold
MX2; 10 μM MGBG, all samples
  MX2 AVERAGE: 1.55 fold
  MX2 MAX: 6.06 fold
  MX2 MIN: −3.27 fold
IL24 [5]; [12]
  Fold change IL24 by QRT-PCR: 5.35 fold and 1.20 fold and 1.09 fold and −1.13 fold and 1.12 fold and 11.88 fold and 2.57 fold and 2.55 fold and 2.25 fold and 1.01 fold and −1.17 fold and 1.92 fold and 1.32 fold and 1.79 fold and 2.50 fold and −2.41 fold and −1.48 fold and −1.30 fold
IL24 [5]; [13]
  Fold change IL24, AVERAGE: 1.6 fold
  Fold change IL24, MAX: 11.9 fold
  Fold change IL24, MIN: −2.4 fold
IL24 [5]; share of samples, 10 μM MGBG
  IL24 % >2 fold Changed: 33%
IL24 [5]; unsorted samples
  IL24 regulation by MGBG: did not exhibit a consistent pattern of change
OPN RNA
  OPN RNA expression: inhibited in a time dependant manner
LILRA1 [6]; average of HIV samples
  LILRA1 signal +, Average: 77
LILRA1 [6]; [9]
  LILRA1 signal +, Average: 133
LILRA1 [6]; [10]
  LILRA1 fold change, ON/MGBG ratio (down-regulation): 6.5 fold and 1.8 fold and 0.3 fold (2×) and 11.6 fold and 3.7 fold and 3.1 fold and 13.8 fold and 2.4 fold and 0.5 fold and 1.1 fold and 2.9 fold and 14.6 fold and 1.3 fold (2×)
LILRA1 [6]; HIV samples
  samples with LILRA1 down-regulated more than 2 fold: 5 of 9
LILRA1 [6]; [11]
  LILRA1 signal +: 40 and 129 and 10 and 65 and 246 and 73 and 42 and 99 and 94 and 212 and 277 and 21 and 1 and 15 and 164
SPP1; [12]
  Fold change SPP1 by QRT-PCR: −20.11 fold and −83.87 fold and −6.59 fold and −1.30 fold and −8.82 fold and −95.67 fold and −7.89 fold and −1.95 fold and −46.21 fold and −5.90 fold and −2.11 fold and −6.15 fold and −1.28 fold and −467.88 fold and −18.90 fold (2×) and −300.25 fold and −2.14 fold
SPP1; [13]
  Fold change SPP1, AVERAGE: −60.9 fold
  Fold change SPP1, MAX: −1.3 fold
  Fold change SPP1, MIN: −467.9 fold
SPP1; certain unsorted samples
  SPP1 fold changes between the untreated and the treated: up to 300 fold
SPP1; share of samples, 10 μM MGBG
  SPP1 % >2 fold Changed: 83%
[7]
  levels of CD16+/CD14− cells: did not affect
  yields of CD14+ macrophages: decreasing yields
